Assay results taken from patent US8865623B2, “Herbicidally active cyclic diones and derivatives thereof, processes for their preparation, compositions, and method of controlling weeds” (Syngenta Limited, priority 2009, dated 2014).

Experiments:
Format in all cases: in vivo
[1] = tested on: Echinochloa crus-galli (ECHCG); assay: Post-emergence herbicidal activity, glasshouse pot test; details: Echinochloa crus-galli, 312 h, rate 250 g/ha, evaluated after 13 days, glasshouse, read-out: Post-emergence activity ECHCG (100=total damage to plant; 0=no damage to plant)
Procedure, shortened: (§1)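 Test species are sown in pots of standard soil and sprayed either one day after sowing or after 8 days of cultivation, for pre- and post-emergence respectively. Plants grow in a controlled glasshouse, watered twice daily, and damage is assessed at 13 days, 0 to 100.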

Lolium perenne (LOLPE) [2] = assay: as above; details: Lolium perenne, 312 h, rate 250 g/ha, evaluated after 13 days, glasshouse, read-out: Post-emergence activity LOLPE (100=total damage to plant; 0=no damage to plant)
Procedure, shortened: as §1

Avena fatua (AVEFA) [3] = assay: as above; details: Avena fatua, 312 h, rate 250 g/ha, evaluated after 13 days, glasshouse, read-out: Post-emergence activity AVEFA (100=total damage to plant; 0=no damage to plant)
Procedure, shortened: as §1

[4] = tested on: Alopecurus myosuroides (ALOMY); assay: as above; details: Alopecurus myosuroides, 312 h, rate 250 g/ha, evaluated after 13 days, glasshouse, read-out: Post-emergence activity ALOMY (100=total damage to plant; 0=no damage to plant)
Procedure, shortened: as §1

[5] = tested on: Echinochloa crus-galli (ECHCG); assay: Pre-emergence herbicidal activity, glasshouse pot test; details: Echinochloa crus-galli, 312 h; Rate 250 g/ha; pre-emergence spray; evaluated after 13 days; read-out: Pre-emergence activity ECHCG (100=total damage to plant; 0=no damage to plant)
Procedure, shortened: as §1

Lolium perenne (LOLPE) [6] = assay: as above; details: Lolium perenne, 312 h; Rate 250 g/ha; pre-emergence spray; evaluated after 13 days; read-out: Pre-emergence activity LOLPE (100=total damage to plant; 0=no damage to plant)
Procedure, shortened: as §1

Avena fatua (AVEFA) [7] = assay: as above; details: Avena fatua, 312 h; Rate 250 g/ha; pre-emergence spray; evaluated after 13 days; read-out: Pre-emergence activity AVEFA (100=total damage to plant; 0=no damage to plant)
Procedure, shortened: as §1

[8] = tested on: Alopecurus myosuroides (ALOMY); assay: as above; details: Alopecurus myosuroides, 312 h; Rate 250 g/ha; pre-emergence spray; evaluated after 13 days; read-out: Pre-emergence activity ALOMY (100=total damage to plant; 0=no damage to plant)
Procedure, shortened: as §1

Structure (SMILES) | pest or weed control at 250 g/ha [1] [%] | pest or weed control at 250 g/ha (Lolium perenne (LOLPE) [2]) [%] | pest or weed control at 250 g/ha (Avena fatua (AVEFA) [3]) [%] | pest or weed control at 250 g/ha [4] [%] | pest or weed control at 250 g/ha [5] [%] | pest or weed control at 250 g/ha (Lolium perenne (LOLPE) [6]) [%] | pest or weed control at 250 g/ha (Avena fatua (AVEFA) [7]) [%] | pest or weed control at 250 g/ha [8] [%]
CCc1ccc(Oc2nc3ccc(Cl)cc3s2)cc1C1=C(O)C(C)(C)OC(C)(C)C1=O [Example A-106] | 90 | 80 | 50 | 90 | 90 | 100 | 20 | 60
CCc1ccc(Oc2ncc(Cl)cn2)cc1C1=C(O)C(C)(C)OC(C)(C)C1=O [Example A-107] | 100 | 40 | 80 | 80 | 100 | 100 | 80 | 90
CCc1ccc(Oc2nccc(C(F)(F)F)n2)cc1C1=C(O)C(C)(C)OC(C)(C)C1=O [Example A-108] | 100 | 50 | 70 | 60 | 80 | 70 | 40 | 40
CCc1ccc(Oc2ncc(Br)cn2)cc1C1=C(O)C(C)(C)OC(C)(C)C1=O [Example A-109] | 100 | 90 | 90 | 90 | 100 | 80 | 70 | 80
CCc1ccc(Oc2ccc(Cl)cc2Cl)cc1C1=C(O)CCC(C)(C)C1=O [Example A-111] | 40 | 50 | 0 | 10 | 40 | 40 | 30 | 10
CCc1ccc(Oc2ccc(Cl)cc2F)cc1C1=C(O)CCC(C)(C)C1=O [Example A-112] | 70 | 60 | 20 | 20 | 60 | 90 | 30 | 40
CCc1ccc(Oc2ccc(Br)cc2)cc1C1=C(O)CCC(C)(C)C1=O [Example A-113] | 90 | 40 | 0 | 10 | 60 | 100 | 30 | 30
CCc1ccc(Oc2ccc(Br)cc2F)cc1C1=C(O)CCC(C)(C)C1=O [Example A-114] | 80 | 50 | 10 | 10 | 60 | 90 | 50 | 20
CCc1ccc(Oc2nc(C(F)(F)F)c(C#N)s2)cc1C1=C(O)C(C)(C)OC(C)(C)C1=O [Example A-115] | 60 | 0 | 10 | 0 | 0 | 0 | 0 | 0
CCc1ccc(Oc2ccc(C#N)c(F)c2)cc1C1=C(O)C(C)(C)OC(C)(C)C1=O [Example A-116] | 100 | 40 | 30 | 80 | 20 | 20 | 0 | 0
CCc1ccc(Oc2cc(F)ccc2C#N)cc1C1=C(O)C(C)(C)OC(C)(C)C1=O [Example A-117] | 100 | 40 | 30 | 80 | 20 | 20 | 0 | 0
CCc1ccc(Oc2nc3ccccc3o2)cc1C1=C(O)C(C)(C)OC(C)(C)C1=O [Example A-118] | 100 | 100 | 80 | 90 | 100 | 100 | 80 | 100
CCc1ccc(Oc2cc(C)c(Cl)nn2)cc1C1=C(O)C(C)(C)OC(C)(C)C1=O [Example A-121] | 50 | 20 | 0 | 10 | 10 | 0 | 0 | 10
CCc1ccc(Oc2ncc(C)cn2)cc1C1=C(O)C(C)(C)OC(C)(C)C1=O [Example A-123] | 50 | 30 | 10 | 20 | 30 | 20 | 0 | 30
CCc1ccc(Oc2ccc(OC)nn2)cc1C1=C(O)C(C)(C)OC(C)(C)C1=O [Example A-124] | 40 | 10 | 0 | 10 | 10 | 0 | 0 | 0
CCc1ccc(Oc2ncnc3sccc23)cc1C1=C(O)C(C)(C)OC(C)(C)C1=O [Example A-126] | 50 | 10 | 20 | 10 | 10 | 0 | 0 | 0
CCc1ccc(Oc2nc(OC)cc(OC)n2)cc1C1=C(O)C(C)(C)OC(C)(C)C1=O [Example A-127] | 30 | 10 | 0 | 0 | 0 | 0 | 0 | 0
CCCc1cnc(Oc2ccc(CC)c(C3=C(O)C(C)(C)OC(C)(C)C3=O)c2)nc1 [Example A-128] | 70 | 40 | 30 | 50 | 50 | 60 | 10 | 20
